The results in this text go back to PubChem BioAssay AID180 (DTP/NCI, 2004).

Several values for one entry are separate records, joined by “and”; a condition that tells them apart may be missing. Equal values may be shown once.

For this assay, the system named is BDF1 mice, Adenocarcinoma 755 s.c., tumor weight T/C. Kind of assay: NCI In Vivo Anticancer Drug Screen. Data for tumor model Adenocarcinoma 755 (subcutaneous) in B6D2F1 (BDF1) mice. The note with it: endpoint: mean tumor weight, schedule: Q01DX011 (ip), higher = larger tumour. In a few lines: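 Compound activity was tested in mice carrying transplanted tumors. Survival or tumor size was measured, and each value is the treated-group measurement divided by that of the vehicle-treated control group (T/C).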

[1] abbreviates: dose: 25.0 mg/kg/injection, vehicle: saline.

Regarding `CS(=O)(=O)OCCC(=O)NCCNC(=O)CCOS(C)(=O)=O`, the T/C is 167 % of control (dose: 6.3 mg/kg/injection, vehicle: saline); 64 % of control (dose: 10.0 mg/kg/injection, vehicle: saline); 120 % of control (dose: 20.0 mg/kg/injection, vehicle: saline); 4 % of control (dose: 25.0 mg/kg/injection, vehicle: methylcellulose (MC)); 65 % of control under setting [1]; 20 % of control (dose: 30.0 mg/kg/injection, vehicle: saline). The T/C was 12 % of control (dose: 40.0 mg/kg/injection, vehicle: saline); 5 % of control and 10 % of control (dose: 50.0 mg/kg/injection, vehicle: saline); 1 % of control (dose: 60.0 mg/kg/injection, vehicle: saline).

In the case of `O=NN1CCN(N=O)CC1`, the T/C (dose: 6.21 mg/kg/injection, vehicle: carboxymethylcellulose (CMC)) is 76 % of control; the T/C (dose: 7.36 mg/kg/injection, vehicle: carboxymethylcellulose (CMC)) was 69 % of control; the T/C (dose: 11.75 mg/kg/injection, vehicle: carboxymethylcellulose (CMC)) was 98 % of control and 78 % of control; the T/C (dose: 12.43 mg/kg/injection, vehicle: carboxymethylcellulose (CMC)) is 85 % of control; the T/C (dose: 14.72 mg/kg/injection, vehicle: carboxymethylcellulose (CMC)) was 101 % of control; the T/C (dose: 18.8 mg/kg/injection, vehicle: carboxymethylcellulose (CMC)) was 157 % of control. Besides, the T/C was 69 % of control and 83 % of control (dose: 23.5 mg/kg/injection, vehicle: carboxymethylcellulose (CMC)); 88 % of control (dose: 23.56 mg/kg/injection, vehicle: carboxymethylcellulose (CMC)); 56 % of control (dose: 24.85 mg/kg/injection, vehicle: carboxymethylcellulose (CMC)); 99 % of control and 100 % of control (dose: 29.45 mg/kg/injection, vehicle: carboxymethylcellulose (CMC)); 57 % of control (dose: 31.33 mg/kg/injection, vehicle: carboxymethylcellulose (CMC)); 67 % of control (dose: 39.26 mg/kg/injection, vehicle: carboxymethylcellulose (CMC)). Further, the T/C (dose: 40.0 mg/kg/injection, vehicle: carboxymethylcellulose (CMC)) was 99 % of control; the T/C (dose: 45.0 mg/kg/injection, vehicle: carboxymethylcellulose (CMC)) was 100 % of control; the T/C (dose: 50.0 mg/kg/injection, vehicle: carboxymethylcellulose (CMC)) was 86 % of control; the T/C (dose: 55.0 mg/kg/injection, vehicle: carboxymethylcellulose (CMC)) was 102 % of control.

With `Cc1cccc(-c2c3ccccc3cc3c2ccc2ccccc23)c1`, the T/C (dose: 30.0 mg/kg/injection, vehicle: methylcellulose (MC)) was 96 % of control; the T/C (dose: 60.0 mg/kg/injection, vehicle: methylcellulose (MC)) is 76 % of control; the T/C (dose: 120.0 mg/kg/injection, vehicle: methylcellulose (MC)) was 79 % of control; the T/C (dose: 240.0 mg/kg/injection, vehicle: methylcellulose (MC)) was 119 % of control.

Consider `Nc1ncnc2c1ncn2CCN(CCO)CCO`, for which the T/C under setting [1] was 172 % of control and the T/C (dose: 225.0 mg/kg/injection, vehicle: saline) is 158 % of control.

As to `O=C1C=C(N2CC2)C(=O)C(N2CC2)=C1N1CC1`, the T/C is 79 % of control (dose: 0.02 mg/kg/injection, vehicle: saline); 61 % of control (dose: 0.05 mg/kg/injection, vehicle: saline); 19 % of control (dose: 0.1 mg/kg/injection, vehicle: saline); 42 % of control (dose: 3.0 micrograms/kg/injection, vehicle: carboxymethylcellulose (CMC)); 25 % of control (dose: 5.0 micrograms/kg/injection, vehicle: carboxymethylcellulose (CMC)); 65 % of control (dose: 5.0 micrograms/kg/injection, vehicle: saline). Moreover, the T/C reads like this: (dose: 10.0 micrograms/kg/injection, vehicle: carboxymethylcellulose (CMC)) 39 % of control; (dose: 10.0 micrograms/kg/injection, vehicle: saline) 54 % of control; (dose: 20.0 micrograms/kg/injection, vehicle: carboxymethylcellulose (CMC)) 8 % of control; (dose: 20.0 micrograms/kg/injection, vehicle: saline) 59 % of control; (dose: 25.0 micrograms/kg/injection, vehicle: carboxymethylcellulose (CMC)) 70 % of control; (dose: 31.0 micrograms/kg/injection, vehicle: carboxymethylcellulose (CMC)) 100 % of control. The T/C (dose: 40.0 micrograms/kg/injection, vehicle: saline) was 33 % of control; the T/C (dose: 62.0 micrograms/kg/injection, vehicle: carboxymethylcellulose (CMC)) is 69 % of control; the T/C (dose: 125.0 micrograms/kg/injection, vehicle: carboxymethylcellulose (CMC)) is 63 % of control.

As for `Cc1cnc(SCc2ccc(Cl)cc2)[nH]c1=O`, the T/C was 74 % of control (dose: 15.0 mg/kg/injection, vehicle: methylcellulose (MC)); 84 % of control (dose: 31.0 mg/kg/injection, vehicle: methylcellulose (MC)); 57 % of control (dose: 62.0 mg/kg/injection, vehicle: methylcellulose (MC)); 49 % of control (dose: 125.0 mg/kg/injection, vehicle: methylcellulose (MC)); 81 % of control (dose: 250.0 mg/kg/injection, vehicle: methylcellulose (MC)).

Regarding `C=C(C)CSc1ncnc2nc[nH]c12`, the T/C is 82 % of control (dose: 1.5 mg/kg/injection, vehicle: other); 78 % of control (dose: 3.0 mg/kg/injection, vehicle: other); 22 % of control (dose: 7.0 mg/kg/injection, vehicle: other); 5 % of control (dose: 15.0 mg/kg/injection, vehicle: other); 5 % of control and 14 % of control (dose: 30.0 mg/kg/injection, vehicle: other); 2 % of control (dose: 60.0 mg/kg/injection, vehicle: other). Under “dose: 120.0 mg/kg/injection, vehicle: other”, the T/C is 2 % of control.

Consider `CCOC(=O)c1c(C#N)c(Cl)nc(C)c1[N+](=O)[O-]`, for which the T/C reads like this: (dose: 1.5 mg/kg/injection, vehicle: carboxymethylcellulose (CMC)) 60 % of control; (dose: 3.0 mg/kg/injection, vehicle: carboxymethylcellulose (CMC)) 70 % of control.

In the case of `Nc1nc(SCc2ccccc2Cl)c2ncn(C3OC(CO)C(O)C3O)c2n1` (centres undefined), the T/C was 69 % of control (dose: 0.85 mg/kg/injection, vehicle: methylcellulose (MC)); 22 % of control (dose: 1.7 mg/kg/injection, vehicle: methylcellulose (MC)); 26 % of control (dose: 3.4 mg/kg/injection, vehicle: methylcellulose (MC)); 4 % of control (dose: 6.75 mg/kg/injection, vehicle: methylcellulose (MC)).
